This note sets out measurements from patent publication US20160355530A1, “HEPATITIS C INHIBITORS AND USES THEREOF” (AbbVie Inc., priority 2010, published 2016).

pEC50, pIC50: −log10 of the molar value. Read-outs that look alike come from different tables or passages of the source.

The target in assay [1] is T1, HCV NS5B polymerase 1a-H77 (Hepatitis C virus genotype 1a, UniProt P27958).
T1 construct: six-histidine tag; made in house; host or cells: E. coli
In words: biochemical. Details: species or system HCV genotype 1a. The note with it: enzyme, strain 1a H77; read-out: HCV Polymerase Strain 1a H77 IC50. Summed up:
(§1)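 E. coli-expressed NS5B (residues 1-570, His-tagged) transcribed a 2.1 kb HCV 1b negative-strand 3′-end RNA template (5 nM) with 20 μM CTP, 20 μM ATP and 0.284 μM [3H]UTP for 3 h at 30° C. Spermine-precipitated RNA was filter-captured and counted by scintillation; IC50 from nonlinear regression.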

The target of assay [2] is T2, HCV NS5B polymerase 1a-H77-C316Y (Hepatitis C virus genotype 1a, UniProt P27958, C2736Y).
T2 construct: six-histidine tag; made in house; host or cells: E. coli
T2 sequence (P27958 2421-2990 C2736Y): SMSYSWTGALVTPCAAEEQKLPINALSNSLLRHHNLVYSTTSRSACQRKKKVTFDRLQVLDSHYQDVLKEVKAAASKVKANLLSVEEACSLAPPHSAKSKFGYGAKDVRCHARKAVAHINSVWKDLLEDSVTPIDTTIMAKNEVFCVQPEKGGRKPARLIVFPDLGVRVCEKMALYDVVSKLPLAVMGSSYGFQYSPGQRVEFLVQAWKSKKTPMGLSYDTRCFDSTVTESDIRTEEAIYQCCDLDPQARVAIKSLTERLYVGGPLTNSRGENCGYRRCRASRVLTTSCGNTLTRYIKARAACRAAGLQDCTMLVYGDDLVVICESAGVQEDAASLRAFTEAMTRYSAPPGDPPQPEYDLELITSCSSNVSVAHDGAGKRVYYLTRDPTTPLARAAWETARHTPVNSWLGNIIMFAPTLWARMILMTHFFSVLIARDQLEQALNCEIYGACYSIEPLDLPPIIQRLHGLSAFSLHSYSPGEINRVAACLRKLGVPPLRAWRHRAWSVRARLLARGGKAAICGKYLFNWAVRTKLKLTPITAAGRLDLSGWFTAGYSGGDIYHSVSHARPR
The assay is described as follows: biochemical. The arrangement: species or system HCV genotype 1a. Summed up:
as §1

The test system of assay [3] is HCV NS5B polymerase 1a-H77-C316Y. The assay is described as follows: biochemical. The arrangement: species or system HCV genotype 1a. The settings on record: ratio of enzyme IC50s, 1a H77-C316Y / 1a H77. In a few lines:
as §1

Assay [4] concerns the target T3, HCV NS5B polymerase 1b BK strain (Hepatitis C virus genotype 1b, UniProt P26663).
T3 construct: six-histidine tag; made in house; host or cells: E. coli
The assay is described as follows: HCV NS5B polymerase enzymatic inhibition assay, strain 1b BK. In kind it is biochemical. The note with it: enzyme, strain 1b BK; read-out: HCV Polymerase Strain 1b BK IC50. In a few lines: as §1

The test system of assay [5] is HCV 1a-H77 subgenomic replicon. The assay is described as follows: microbe, parasite or virus in culture. In kind it is cell-based, HCV genotype 1a. The note with it: Hepatitis C virus, stable replicon.
In assay [6] the test system is HCV 1b-BB7 subgenomic replicon. In words: microbe, parasite or virus in culture. The format is cell-based, HCV genotype 1b. The settings on record: Hepatitis C virus, stable replicon.
Assay [7] concerns chimeric replicon with 2a-J6CF-derived NS5B. In words: microbe, parasite or virus in culture. The format is cell-based, HCV genotype 2a. The settings on record: Hepatitis C virus, read-out: 2a chimera 5% FBS EC50.
Assay [8] has as its system chimeric replicon with genotype 2b NS5B. The assay is described as follows: microbe, parasite or virus in culture. The format is cell-based, HCV genotype 2b. The note with it: Hepatitis C virus, read-out: 2b chimera 5% FBS EC50.
The test system of assay [9] is chimeric replicon with genotype 3a NS5B. The assay is described as follows: microbe, parasite or virus in culture. In kind it is cell-based, HCV genotype 3a. The settings on record: Hepatitis C virus, read-out: 3a chimera 5% FBS EC50.
Assay [10] concerns chimeric replicon with genotype 4a NS5B. The assay is described as follows: microbe, parasite or virus in culture. In kind it is cell-based, HCV genotype 4a. The note with it: Hepatitis C virus, read-out: 4a chimera 5% FBS EC50.
[11] abbreviates: 5% FBS, absence of human plasma, read-out: Stable Replicon 1a H77 5% FBS EC50.
[12] abbreviates: strain 1a H77, 5% FBS + 40% human plasma, read-out: 1a H77 5% FBS + 40% Human Plasma EC50.
Where [13] appears, read: strain 1a H77, 5% FBS, no human plasma, read-out: 1a H77 5% FBS EC50.
The mark [14] stands for this setting: strain 1a H77, 5% FBS, read-out: 1a H77 5% FBS EC50.
Where [15] appears, read: strain 1b BB7, 5% FBS + 40% human plasma, read-out: 1b BB7 5% FBS + 40% Human Plasma EC50.
[16] abbreviates: strain 1b BB7, 5% FBS, no human plasma, read-out: 1b BB7 5% FBS EC50.
[17] abbreviates: strain 1b BB7, 5% FBS, read-out: 1b BB7 5% FBS EC50.

T3 sequence (P26663 2420-2989): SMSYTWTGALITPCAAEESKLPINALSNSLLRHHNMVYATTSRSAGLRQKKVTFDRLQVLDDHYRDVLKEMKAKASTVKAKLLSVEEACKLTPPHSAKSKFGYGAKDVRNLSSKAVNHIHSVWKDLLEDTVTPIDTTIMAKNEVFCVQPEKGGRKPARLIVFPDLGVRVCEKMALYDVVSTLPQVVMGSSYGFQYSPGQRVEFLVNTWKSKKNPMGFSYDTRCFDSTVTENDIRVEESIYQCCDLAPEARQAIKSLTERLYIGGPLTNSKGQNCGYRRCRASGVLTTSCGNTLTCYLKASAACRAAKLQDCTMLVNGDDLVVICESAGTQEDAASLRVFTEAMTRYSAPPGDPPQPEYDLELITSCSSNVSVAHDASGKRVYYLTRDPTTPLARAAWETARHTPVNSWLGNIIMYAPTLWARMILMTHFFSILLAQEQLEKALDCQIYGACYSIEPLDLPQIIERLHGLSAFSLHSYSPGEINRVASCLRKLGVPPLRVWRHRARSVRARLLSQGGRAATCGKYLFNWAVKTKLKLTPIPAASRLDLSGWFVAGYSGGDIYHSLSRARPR
T1 sequence (P27958 2421-2990): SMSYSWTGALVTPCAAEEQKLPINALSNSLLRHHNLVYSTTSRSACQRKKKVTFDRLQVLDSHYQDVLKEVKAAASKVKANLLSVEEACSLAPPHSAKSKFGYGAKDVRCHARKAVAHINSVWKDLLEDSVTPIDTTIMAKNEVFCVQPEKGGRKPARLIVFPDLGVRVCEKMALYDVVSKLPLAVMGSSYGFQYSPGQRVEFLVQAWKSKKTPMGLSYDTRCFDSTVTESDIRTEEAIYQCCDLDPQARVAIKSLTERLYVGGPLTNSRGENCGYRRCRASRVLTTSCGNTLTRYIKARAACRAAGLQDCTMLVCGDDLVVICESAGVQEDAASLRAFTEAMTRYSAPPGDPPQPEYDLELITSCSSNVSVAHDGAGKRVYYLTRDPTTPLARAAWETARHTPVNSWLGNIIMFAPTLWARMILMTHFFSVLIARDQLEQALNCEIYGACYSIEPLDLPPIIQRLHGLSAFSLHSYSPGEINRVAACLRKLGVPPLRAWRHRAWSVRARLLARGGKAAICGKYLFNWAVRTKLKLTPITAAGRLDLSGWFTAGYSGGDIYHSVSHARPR

Turning to `CS(=O)(=O)N(CCCC#N)c1cc2oc(-c3ccc(F)cc3)c(C3=NOCCN3)c2cc1C1CC1` [Example 133, N-(3-cyanopropyl)-N-[5-cyclopropyl-3-(5,6-dihydro-4H-1,2,4-oxadiazin-3-yl)-2-(4-fluorophenyl)-1-benzofuran-6-yl]methanesulfonamide], the values for the pIC50 in [1], in [2] and in assay [4] were 8.10, 7.30 and 7.34, respectively. In addition, in assay [3], the “C316Y/1a Fold Resistance” value worked out at 6 fold. Besides, the negative-log EC50 (pEC50) in assay [5] (setting [11]) is 8.20; in [5] (setting [12]) it was 7.43; in assay [5] (setting [13]), 8.20; in assay [5] (setting [14]), 8.20; in assay [6] (setting [15]), 7.26; in [6] (setting [16]), 8.22. Besides, the pEC50 in assay [6] (setting [17]) is 8.22; in assay [7] it was 7.04; in [8], 7.09; in [9], 7.96; in [10] it was 7.12.

Regarding `CS(=O)(=O)N(CCCCCO)c1cc2oc(-c3ccc(F)cc3)c(C3=NOCCN3)c2cc1C1CC1` [Example 134, N-[5-cyclopropyl-3-(5,6-dihydro-4H-1,2,4-oxadiazin-3-yl)-2-(4-fluorophenyl)-1-benzofuran-6-yl]-N-(5-hydroxypentyl)methanesulfonamide], the negative logarithm of the IC50 (pIC50) in assay [1] was 8.10; in [2], 7.38; in assay [4], 7.09. Moreover, the “C316Y/1a Fold Resistance” value in assay [3] is on record as 5 fold. The pEC50 is 8.19 in assay [5] (setting [11]); 7.16 in assay [5] (setting [12]); 8.19 in assay [5] (setting [13]); 8.19 in assay [5] (setting [14]); 7.03 in assay [6] (setting [15]); 8.05 in assay [6] (setting [16]). Further, the pEC50 in [6] (setting [17]) was 8.05; in [7], 7.08; in assay [8], 7.16; in assay [9], 7.70; in assay [10], 7.28.

On to `C[S+]([O-])CCN(c1cc2oc(-c3ccc(F)cc3)c(C3=NOCCN3)c2cc1C1CC1)S(C)(=O)=O` (stereo not drawn) [Example 138, N-[5-cyclopropyl-3-(5,6-dihydro-4H-1,2,4-oxadiazin-3-yl)-2-(4-fluorophenyl)-1-benzofuran-6-yl]-N-[2-(methylsulfinyl)ethyl]methanesulfonamide], for which the pIC50 in assay [1] was 8.01; in assay [2], 6.63; in assay [4] it was 7.31. In addition, the “C316Y/1a Fold Resistance” value in assay [3] is given as 24 fold. Moreover, the negative-log EC50 (pEC50) in assay [5] (setting [11]) was 7.33; in assay [5] (setting [12]) it was 6.74; in assay [5] (setting [13]), 7.33; in assay [5] (setting [14]) it was 7.33; in assay [6] (setting [15]), 6.57; in [6] (setting [16]) it was 7.44. Besides, the negative logarithm of the EC50 (pEC50) in assay [6] (setting [17]) was 7.44; in [7], 6.00; in assay [8] it was 6.00; in [9] it was 6.99; in [10], 6.28.

For the molecule `C[S+]([O-])CCCN(c1cc2oc(-c3ccc(F)cc3)c(C3=NOCCN3)c2cc1C1CC1)S(C)(=O)=O` (stereo not drawn) [Example 139, N-[5-cyclopropyl-3-(5,6-dihydro-4H-1,2,4-oxadiazin-3-yl)-2-(4-fluorophenyl)-1-benzofuran-6-yl]-N-[3-(methylsulfinyl)propyl]methanesulfonamide], the pIC50 in [1] was 8.11; in assay [2], 7.05; in assay [4] it was 8.05. Moreover, the “C316Y/1a Fold Resistance” value in assay [3] stood at 11 fold. Also, the negative-log EC50 (pEC50) in assay [5] (setting [11]) is 7.23; in assay [5] (setting [12]), 6.19; in assay [5] (setting [13]), 7.23; in assay [5] (setting [14]) it was 7.23; in assay [6] (setting [15]), 6.02; in assay [6] (setting [16]), 7.17. For the same molecule, the pEC50 in assay [6] (setting [17]) is 7.17; in assay [7], 6.00; in [8], 6.10; in assay [9] it was 6.99; in assay [10], 6.24.

`CS(=O)(=O)CCCN(c1cc2oc(-c3ccc(F)cc3)c(C3=NOCCN3)c2cc1C1CC1)S(C)(=O)=O` [Example 140, N-[5-cyclopropyl-3-(5,6-dihydro-4H-1,2,4-oxadiazin-3-yl)-2-(4-fluorophenyl)-1-benzofuran-6-yl]-N-[3-(methylsulfonyl)propyl]methanesulfonamide]: the pIC50 in assay [1] was 8.30; in assay [2], 7.42; in [4], 7.38. Further, in assay [3], the “C316Y/1a Fold Resistance” value came to 8 fold. The pEC50 in assay [5] (setting [11]) was 7.84; in assay [5] (setting [12]), 6.91; in [5] (setting [13]), 7.84; in assay [5] (setting [14]), 7.84; in assay [6] (setting [15]) it was 6.82; in assay [6] (setting [16]), 7.96. Besides, the negative logarithm of the EC50 (pEC50) in assay [6] (setting [17]) was 7.96; in [7] it was 6.56; in [8] it was 6.68; in [9], 7.36; in [10], 6.72.

In the case of `CC[S+]([O-])CCN(c1cc2oc(-c3ccc(F)cc3)c(C3=NOCCN3)c2cc1C1CC1)S(C)(=O)=O` (stereo not drawn) [Example 141, N-[5-cyclopropyl-3-(5,6-dihydro-4H-1,2,4-oxadiazin-3-yl)-2-(4-fluorophenyl)-1-benzofuran-6-yl]-N-[2-(ethylsulfinyl)ethyl]methanesulfonamide], the negative-log IC50 (pIC50) in [1] was 7.82; in assay [2], 6.68; in assay [4], 6.78. In addition, the “C316Y/1a Fold Resistance” value in [3] amounted to 14 fold. Besides, the pEC50 was 7.41 in assay [5] (setting [11]); 6.56 in assay [5] (setting [12]); 7.41 in assay [5] (setting [13]); 7.41 in assay [5] (setting [14]); 6.53 in assay [6] (setting [15]); 7.51 in assay [6] (setting [16]). Besides, the pEC50 in assay [6] (setting [17]) is 7.51; in [7], 6.21; in assay [8], 6.00; in assay [9] it was 7.28; in [10], 6.21.

As for `CCS(=O)(=O)CCN(c1cc2oc(-c3ccc(F)cc3)c(C3=NOCCN3)c2cc1C1CC1)S(C)(=O)=O` [Example 142, N-[5-cyclopropyl-3-(5,6-dihydro-4H-1,2,4-oxadiazin-3-yl)-2-(4-fluorophenyl)-1-benzofuran-6-yl]-N-[2-(ethylsulfonyl)ethyl]methanesulfonamide], the negative logarithm of the IC50 (pIC50) in [1] was 8.15; in [2] it was 7.23; in assay [4], 7.38. The “C316Y/1a Fold Resistance” value in assay [3] is listed as 8 fold. Besides, the negative logarithm of the EC50 (pEC50) in assay [5] (setting [11]) was 7.94; in [5] (setting [12]), 7.39; in assay [5] (setting [13]), 7.94; in assay [5] (setting [14]), 7.94; in assay [6] (setting [15]) it was 6.96; in [6] (setting [16]), 7.96. The negative-log EC50 (pEC50) in assay [6] (setting [17]) was 7.96; in [7] it was 6.71; in assay [8], 6.43; in assay [9], 7.68; in assay [10], 6.79.

Consider `CCS(=O)(=O)CCCN(c1cc2oc(-c3ccc(F)cc3)c(C3=NOCCN3)c2cc1C1CC1)S(C)(=O)=O` [Example 143, N-[5-cyclopropyl-3-(5,6-dihydro-4H-1,2,4-oxadiazin-3-yl)-2-(4-fluorophenyl)-1-benzofuran-6-yl]-N-[3-(ethylsulfonyl)propyl]methanesulfonamide], for which the results for the pIC50 in [1], in assay [2] and in assay [4] were 8.05, 7.12 and 7.38, respectively. Moreover, in [3], the “C316Y/1a Fold Resistance” value is 8 fold. Moreover, the pEC50 in assay [5] (setting [11]) was 7.66; in assay [5] (setting [12]), 6.90; in assay [5] (setting [13]), 7.66; in assay [5] (setting [14]) it was 7.66; in assay [6] (setting [15]), 6.97; in assay [6] (setting [16]) it was 7.92. In addition, the pEC50 in [6] (setting [17]) was 7.92; in [7], 6.88; in assay [8], 6.86; in assay [9], 7.46; in assay [10], 6.82.
